Laboratory results published in US8598342B2, “Methods and compounds for antimicrobial intervention” (President and Fellows of Harvard College, priority 2008, dated 2013).
Entries after “also recorded” stand apart in the source; their conditions may differ.

Legend:
[1] = system: S. aureus strain expressing B. subtilis 168 TagGH; assay: Growth of S. aureus RN4220 expressing B. subtilis 168 tagGH; format: cell-based, Staphylococcus aureus; conditions: 28° C., 12 h, OD600
Protocol: (§1) (A) Targocil MIC data for a panel of Gram-positive strains, including MRSA clinical isolates B5271 and 5340A. Growth was monitored in triplicate after 12 h at 28° C. using optical density. (B) Two dimensional drug interaction analysis between tunicamycin and targocil grown for 18 h at 30° C. […] At higher concentrations, tunicamycin is toxic because it inhibits cell wall biosynthesis. […] Varying concentrations of drug were added to […] of S. aureus RN4220 after 5 h and cell count was monitored over time at 30° C. […] Cells were grown at 28° C. for 12 h and monitored for growth using optical density (OD600). Data were normalized to the DMSO controls for each strain. (E) Two classes of mutants were examined: phage resistant (m1 3) and phage sensitive (m4-5).

[2] = system: S. aureus strains, including five MRSA strains; assay: In vitro MIC against a panel of S. aureus strains including MRSA; format: cell-based, Staphylococcus aureus
Protocol: as §1
(G. Bou, (2007) Methods Mol Biol 391, 29)

[3] = target: T1, S. aureus TarB (Staphylococcus aureus, UniProt Q2G2X4); assay: In vitro enzyme inhibition assay, TarB (radiometric); format: biochemical; conditions: targocil 50 μg/mL; enzyme 200 nM
T1 construct: made in house
T1 sequence (Q2G2X4 1-367): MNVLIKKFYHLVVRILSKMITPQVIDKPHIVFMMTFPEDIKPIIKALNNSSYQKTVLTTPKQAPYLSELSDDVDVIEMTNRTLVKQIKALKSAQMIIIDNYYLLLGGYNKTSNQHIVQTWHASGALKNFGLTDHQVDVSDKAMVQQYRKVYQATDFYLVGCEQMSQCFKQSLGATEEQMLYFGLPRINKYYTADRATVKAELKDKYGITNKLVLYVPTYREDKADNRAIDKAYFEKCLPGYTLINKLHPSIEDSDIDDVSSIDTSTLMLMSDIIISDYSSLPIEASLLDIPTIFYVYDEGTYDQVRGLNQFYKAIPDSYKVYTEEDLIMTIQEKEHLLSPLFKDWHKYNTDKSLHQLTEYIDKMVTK
Protocol: (§2) S. aureus TarB, D, F, I, and L were cloned, overexpressed and purified as described previously (S. Brown, Y. H. Zhang, S. Walker, Chemistry & Biology 15, 12, Jan. 2008.) Radiometric in vitro assays were run to test the inhibitory effects of targocil on Tar B, D, F, and L, while TarI was assayed for targocil inhibition using an HPLC assay using conditions similar to those previously reported (ibid). See below for exact reaction conditions. […] In each case, a reaction with no targocil served as a negative control (active enzymatic reaction) and a reaction with heat-treated enzyme served as a positive control (no enzymatic reaction). Targocil was incubated with all reaction components except the substrates at room temperature. After 10 minutes, substrates were added and the reactions were allowed to proceed for 60 minutes. The reactions were quenched with DMF and the products were imaged/monitored as previously described (ibid).

[4] = target: T2, S. aureus TarL (Staphylococcus aureus, UniProt Q2G1B8); assay: In vitro enzyme inhibition assay, TarL (radiometric); format: biochemical; conditions: targocil 50 μg/mL; enzyme 200 nM
T2 construct: made in house
T2 sequence (Q2G1B8 1-562): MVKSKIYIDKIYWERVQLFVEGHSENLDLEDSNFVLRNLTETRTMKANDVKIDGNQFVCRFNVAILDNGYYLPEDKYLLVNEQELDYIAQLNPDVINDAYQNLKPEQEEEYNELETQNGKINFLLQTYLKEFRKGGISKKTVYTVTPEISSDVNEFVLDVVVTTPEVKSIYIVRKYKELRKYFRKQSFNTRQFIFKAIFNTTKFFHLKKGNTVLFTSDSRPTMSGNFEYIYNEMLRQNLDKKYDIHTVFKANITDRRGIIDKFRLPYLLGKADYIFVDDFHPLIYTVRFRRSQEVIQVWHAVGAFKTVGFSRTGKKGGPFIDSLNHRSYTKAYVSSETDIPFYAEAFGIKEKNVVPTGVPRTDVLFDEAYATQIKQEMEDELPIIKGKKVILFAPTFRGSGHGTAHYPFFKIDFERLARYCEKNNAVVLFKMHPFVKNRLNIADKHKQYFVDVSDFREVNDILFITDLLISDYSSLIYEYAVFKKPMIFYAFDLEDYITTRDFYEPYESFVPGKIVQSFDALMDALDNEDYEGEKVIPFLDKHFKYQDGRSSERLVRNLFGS
Protocol: (A) TarL reaction with heat-treated enzyme; (B) TarL reaction with active enzyme; (C) TarL reaction with 5 μM targocil; (D) TarL reaction with 50 μM targocil; (E) TarL reaction with 100 μM targocil.
as §2
TarL in vitro inhibition assay protocol and data. Each 3 μL reaction contained 1 μM [14C] (GroP)2-ManNAc-β-(1,4)-GlcNAc-pp-farnesyl, 50 μM CDP-ribitol, 20 mM Tris base pH 7.5, 100 mM NaCl, 10 mM MgCl2, 200 nM TarL and either 5, 50, or 100 μM targocil. […]

[5] = system: B. subtilis 168; assay: MIC panel of Gram-positive strains: B. subtilis 168; format: cell-based, Bacillus subtilis
Protocol: as §1

[6] = target: T3, S. aureus TarJ (Staphylococcus aureus, UniProt Q2G1B9); assay: In vitro enzyme inhibition assay, TarJ; format: biochemical; conditions: targocil 50 μg/mL
T3 sequence (Q2G1B9 1-341): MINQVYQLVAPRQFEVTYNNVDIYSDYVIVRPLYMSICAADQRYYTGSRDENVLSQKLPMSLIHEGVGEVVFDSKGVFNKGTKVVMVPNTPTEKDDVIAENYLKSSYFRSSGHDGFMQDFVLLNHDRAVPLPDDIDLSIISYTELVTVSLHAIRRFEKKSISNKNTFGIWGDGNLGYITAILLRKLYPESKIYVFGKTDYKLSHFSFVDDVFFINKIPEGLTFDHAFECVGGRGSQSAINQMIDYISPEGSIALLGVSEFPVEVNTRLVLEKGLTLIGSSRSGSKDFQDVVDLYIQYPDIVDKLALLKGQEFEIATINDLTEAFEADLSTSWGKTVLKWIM

CCN(CC)c1nc2c(S(=O)(=O)c3ccccc3)nnn2c2ccc(Cl)cc12 [7-chloro-N,N-diethyl-3-(phenylsulfonyl)-[1,2,3]triazolo[1,5-a]quinazolin-5-amine]
resistance to targocil of strain expressing B. subtilis 168 TagGH [1]: fully resistant; also recorded: complete resistance | effectiveness against strains of S. aureus ([2]; RN4220, RN450, Newman strain, Wood strain): effective against numerous strains of S. aureus | in vitro MIC values against all tested S. aureus strains ([2]; including five MRSA strains): low μg/mL range | species selectivity of antibiotic activity ([2]; panel of Gram-positive strains): selective for S. aureus | inhibition of TarB [3]: None of these enzymes was inhibited | inhibition of TarL [4]: None of these enzymes was inhibited | susceptibility of B. subtilis 168 [5]: targocil resistance in B. subtilis 168 | inhibition of TarJ [6]: None of these enzymes was inhibited
